The results in this text go back to US10730878B2, “Fused quinoline compounds as PI3K/mTOR inhibitors” (ADVENCHEN PHARMACEUTICALS, LLC, priority 2015, dated 2020).

One experiment deals with T1, mTor (Homo sapiens, UniProt P42345).
T1 construct: purchased Millipore/Merck KGA of Europe (panel screening service)
Nature of the experiment: mTor kinase inhibition, % activity at 0.03 μM (kinases panel screening). Format: biochemical. The conditions noted are these: 0.03 μM compound. The text has this: (§1) In vitro kinase inhibition activities included Pi3k and mTor activities can be tested with Millipore/Merck KGA of Europe in their kinases panel screening. Animal antitumor activity testing can be conducted by various cancer xenograft models for a compound of formula I. […]

The test system of the next experiment is pi3K. Nature of the experiment: pi3K kinase inhibition, % activity at 0.03 μM (kinases panel screening). To be noted: 0.03 μM compound. Format: biochemical.
Text: as §1

The next experiment relates to tumor cell lines. Nature of the experiment: inhibition on tumor cell lines (drawing 11). More on the design: tumor cell line inhibition, first column under head drawing 11 / tumor cell line inhibition, third column under head drawing 11: unit not given here. In kind it is cell-based. The conditions noted are these: head is a drawing, cell line and unit not readable; for tumor cell line inhibition, first column under head drawing 11: first of three columns; for tumor cell line inhibition, second column under head drawing 11: second of three columns; for tumor cell line inhibition, third column under head drawing 11: third of three columns. As to the method: The following compounds or a pharmaceutically acceptable salt thereof, but not limited, can also be prepared similarly according to the methods described in Scheme I-Scheme II. They are also tested for the inhibitions on mTor or pi3k kinases, or tumor cell lines.

For “N-(5-{16-[4-(1-cyano-1-methylethyl)phenyl]-8,11,13,14,16-pentaazatetracyclo[8.6.0.0^2,^7.0^11,^1^5]-hexadeca-1(10), 2,4,6,8,12,14-heptaen-4-yl)}pyridin-2-yl)-2-(methylamino)acetamide”, on mTor, the “mTor % activity @0.03 μM” value worked out at 0%. The “pi3K % activity @0.03 μM” value with pi3K came out at 39%.
The matching figures for “5-[16-(4-tert-butylphenyl)-12-ethyl-8,11,13,14,16-pentaazatetracyclo[8.6.0.0^2,^7.0^11,^1^5]hexadeca-1(10),2,4,6,8,12,14-heptaen-4-yl]-N-(2-methoxyethyl)pyridin-2-amine”: 72% and 93%.
The matching figures for `CC(C)(C#N)c1ccc(-n2c3c4cc(-c5ccc(N)nc5)ccc4ncc3n3cnnc23)cc1` [5-pyridin-2-amine; H; CH3, CH3; CN, 2-{4-[4-(6-aminopyridin-3-yl)-8,11,13,14,16-pentaazatetracyclo[8.6.0.0^2,^7.0^11,^1^5]hexadeca-1(10),2,4,6,8,12,14-heptaen-16-yl]phenyl}-2-methylpropanenitrile]: 45% and −16%.
With `CCc1nnc2n(-c3ccc(C(C)(C)C)cc3)c3c4cc(-c5ccc(N)nc5)ccc4ncc3n12` [5-pyridin-2-amine; CH2CH3; CH3, CH3; CH3, 5-[16-(4-tert-butylphenyl)-12-ethyl-8,11,13,14,16-pentaazatetracyclo[8.6.0.0^2,^7.0^11,^1^5]hexadeca-1(10),2,4,6,8,12,14-heptaen-4-yl]pyridin-2-amine], the “mTor % activity @0.03 μM” value on mTor stood at 20%. Moreover, the “pi3K % activity @0.03 μM” value with pi3K turned out to be 40%.
The matching figures for `Cc1nnc2n(-c3ccc(C(C)(C)C)cc3)c3c4cc(-c5cnc(N)cc5C(F)(F)F)ccc4ncc3n12` [5-[16-(4-tert-butylphenyl)-12-methyl-8,11,13,14,16-pentaazatetracyclo[8.6.0.0^2,^7.0^11,^1^5]hexa-deca-1(10), 2,4,6,8,12,14-heptaen-4-yl]-4-(trifluoromethyl)pyridin-2-amine]: 94% and 50%.
Take “N-(5-{16-[4-(1-cyano-1-methylethyl)phenyl]-8,11,13,14,16-pentaazatetracyclo[8.6.0.0^2,^7.0^11,^1^5]-hexadeca-1(10), 2,4,6,8,12,14-heptaen-4-yl)}pyridin-2-yl)-2-(cyclohexylamino)acetamide”: the “mTor % activity @0.03 μM” value on mTor is on record as 3%. In addition, the “pi3K % activity @0.03 μM” value with pi3K came to 79%.
On to `CCc1nnc2n(-c3ccc(C(C)(C)C)cc3)c3c4cc(-c5cccnc5)ccc4ncc3n12` [3-pyridine; CH2CH3; CH3, CH3; CH3, 16-(4-tert-butylphenyl)-12-ethyl-4-(pyridin-3-yl)-8,11,13,14,16-pentaazatetracyclo-[8.6.0.0^2,^7.0^11,^1^5]hexadec-1(10),2,4,6,8,12,14-heptaene], for which the “mTor % activity @0.03 μM” value on mTor is reported as 40%. Also, the “pi3K % activity @0.03 μM” value with pi3K was found to be 79%.
Regarding `CC(C)(C)c1ccc(-n2c3c4cc(-c5ccc(N)nc5)ccc4ncc3n3cnnc23)cc1` [5-pyridin-2-amine; H; CH3, CH3; CH3, 5-[16-(4-tert-butylphenyl)-8,11,13,14,16-pentaazatetracyclo[8.6.0.0^2,^7.0^11,^1^5]hexadeca-1(10),2,4,6,8,12,14-heptaen-4-yl]pyridin-2-amine], the “pi3K % activity @0.03 μM” value in the experiment with pi3K is recorded as −19%.
`CC(C)(C#N)c1ccc(-n2c3c4cc(-c5cnc(N)cc5C(F)(F)F)ccc4ncc3n3cnnc23)cc1` [2-(4-{4-[6-amino-4-(trifluoromethyl)pyridin-3-yl]-8,11,13,14,16-pentaazatetracyclo-[8.6.0.0^2,^7.0^11,^1^5]hexadec-1(10),2,4,6,8,12,14-heptaen-16-yl}phenyl)-2-methylpropanenitrile]: the “mTor % activity @0.03 μM” value at mTor was found to be 87%. Also, the “pi3K % activity @0.03 μM” value with pi3K turned out to be 65%.
The matching figures for “N-{5-[16-(4-tert-butylphenyl)-8,11,13,14,16-pentaazatetracyclo[8.6.0.0^2,^7.0^11,^1^5]hexadeca-1(10),2,4,6,8,12,14-heptaen-4-yl]pyridin-2-yl}-2-(pyrrolidin-1-yl)acetamide”: 27% and 88%.
`Cc1nnc2n(-c3ccc(C(C)(C)C#N)cc3)c3c4cc(-c5cccnc5)ccc4ncc3n12` [3-pyridine; CH3; CH3, CH3; CN, 2-methyl-2-{4-[12-methyl-4-(pyridin-3-yl)-8,11,13,14,16-pentaazatetracyclo-[8.6.0.0^2,^7.0^11,^1^5]-hexadeca-1(10),2,4,6,8,12,14-heptaen-16-yl]phenyl}propanenitrile]: the “mTor % activity @0.03 μM” value on mTor is on record as 80%. Further, in the experiment with tumor cell lines, the “tumor cell line inhibition, first column under head drawing 11” value was found to be 0.7; the “tumor cell line inhibition, second column under head drawing 11” value was 2.6; the “tumor cell line inhibition, third column under head drawing 11” value was determined as 22.
In the case of `Cc1nnc2n(-c3ccc(C(C)(C)C#N)cc3)c3c4cc(-c5cnc6ccccc6c5)ccc4ncc3n12` [3-quinoline; CH3; CH3, CH3; CN, 2-methyl-2-{4-[12-methyl-4-(quinolin-3-yl)-8,11,13,14,16-pentaazatetracyclo-[8.6.0.0^2,^7.0^11,^1^5]hexadeca-1(10),2,4,6,8,12,14-heptaen-16-yl]phenyl}propanenitrile], in the experiment with tumor cell lines, the “tumor cell line inhibition, first column under head drawing 11” value is given as 13.5; the “tumor cell line inhibition, second column under head drawing 11” value came to 8.5; the “tumor cell line inhibition, third column under head drawing 11” value is on record as above 23.
The matching figures for `C#CC(C)(C)c1ccc(-n2c3c4cc(-c5cccc(F)c5)ccc4ncc3n3c(C)nnc23)cc1` [3-Fluorophenyl; CH3; CH3, CH3; CN, 4-(3-fluorophenyl)-12-methyl-16-[4-(2-methylbut-3-yn-2-yl)phenyl]-8,11,13,14,16-pentaaza-tetracyclo[8.6.0.0^2,^7.0^11,^1^5]hexadeca-1(10), 2,4,6,8,12,14-heptaene]: 0.9, 0.8 and 1.
The matching figures for `C#CC(C)(C)c1ccc(-n2c3c4cc(-c5ccccc5F)ccc4ncc3n3c(C)nnc23)cc1` [2-Fluorophenyl; CH3; CH3, CH3; CN, 4-(2-fluorophenyl)-12-methyl-16-[4-(2-methylbut-3-yn-2-yl)phenyl]-8,11,13,14,16-pentaaza-tetracyclo[8.6.0.0^2,^7.0^11,^1^5]hexadeca-1(10), 2,4,6,8,12,14-heptaene]: 0.6, 2.2 and 2.
The matching figures for `CC(C)(C#N)c1ccc(-n2c3c4cc(-c5cccnc5)ccc4ncc3n3cnnc23)cc1` [3-pyridine; H; CH3, CH3; CN, 2-methyl-2-{4-[4-(pyridin-3-yl)-8,11,13,14,16-pentaazatetracyclo[8.6.0.0^2,^7.0^11,^1^5]-hexadeca-1(10),2,4,6,8,12,14-heptaen-16-yl]phenyl}propanenitrile]: 11, 13 and 20.
